No end group written: not given here.
Columns and labels:
SW480 = test: Anti-cancer assay, MTT, LD50; assay type: cell-based; conditions: SW480 colon adenocarcinoma line, 24 hours with peptide
Excerpt: (§1) Numbers are LD50 values (μg/mL).

H1299 = test: Anti-cancer assay, MTT, LD50; assay type: cell-based; conditions: 24 hours with peptide, lung large cell carcinoma
Excerpt: as §1

PC3 = test: Anti-cancer assay, MTT, LD50; assay type: cell-based; conditions: 24 hours with peptide, prostate adenocarcinoma
Excerpt: as §1

HeLaS3 = test: Anti-cancer assay, MTT, LD50; assay type: cell-based; conditions: 24 hours with peptide, cervical carcinoma
Excerpt: as §1

BMKC = test: Anti-cancer assay, MTT, LD50; assay type: cell-based; conditions: BMKC cloned melanoma line, 24 hours with peptide
Excerpt: as §1

MCF7 = test: Anti-cancer assay, MTT, LD50; assay type: cell-based; conditions: MCF7 breast adenocarcinoma line, MTT, 24 hours with peptide
Excerpt: as §1

[1] = system: Staphylococcus aureus ATCC 6538; test: Antimicrobial assay I, MIC by OD measurement; assay type: cell-based; conditions: 37° C. for 24 hours, absorbance 620 nm
[2] = system: Pseudomonas aeruginosa ATCC 9027; test: Antimicrobial assay I, MIC by OD measurement; assay type: cell-based; conditions: 37° C. for 24 hours, absorbance 620 nm
[3] = system: yeast (Saccharomyces cerevisiae); test: Antimicrobial assay I, yeast assay in RPMI 1640; assay type: cell-based; conditions: RPMI 1640 media
WI38 = conditions: MTT, 24 hours with peptide; for WI38 LD50: normal fibroblast line; for LD50 WI38: WI38 normal lung fibroblast line
[4] = system: human red blood cells (RBC); test: in vitro; assay type: cell-based; conditions: hemolytic assay, concentration at 50% hemolysis, 1 hour at 37° C.
in vitro = conditions: human, WI38 normal lung fibroblast cells, LD50 WI38, WI38 normal lung fibroblast line, MTT, 24 hours with peptide

Row | Substance | LD50 SW480 (SW480) | H1299 LD50 (H1299) | PC3 LD50 (PC3) | HeLaS3 LD50 (HeLaS3) | LD50 BMKC (BMKC) | LD50 MCF7 (MCF7) | staph6538 (MIC) [1] | paerug9027 (MIC) [2] | yeast (MIC or MFC) [3] | WI38 LD50 (WI38) | LD50 [4] | CC50 at 24 h (in vitro) [µg/mL] | LD50 WI38 (WI38)
1 | FAKKLAKKLAKAAL-NH2 [P76, FAKKLAKKLAKAAL-NH2] | 400 µg/mL | 860 µg/mL | 675 µg/mL | 380 µg/mL | 750 µg/mL | 970 µg/mL | 10 µg/mL | 100 µg/mL | 200 µg/mL | 445 µg/mL | > (> indicates greater than 1000) | 445 | –
2 | FAKIIAKIAKIAKKIL-NH2 [P139] | > (> indicates greater than 1000) | 850 µg/mL | > (> indicates greater than 1000) | > (> indicates greater than 1000) | 525 µg/mL | 625 µg/mL | 50 µg/mL | 25 µg/mL | 200 µg/mL | 550 µg/mL | > (> indicates greater than 1000) | 550 | –
3 | FAKLLAKLAKKSL-NH2 [P127] | 400 µg/mL | 770 µg/mL | > (> indicates greater than 1000) | 610 µg/mL | 535 µg/mL | 440 µg/mL | 100 µg/mL | 25 µg/mL | 100 µg/mL | 760 µg/mL | > (> indicates greater than 1000) | 760 | –
4 | FAKLA-NH2 [P128, FAKLA-NH2] | 530 µg/mL | > (> indicates greater than 1000) | > (> indicates greater than 1000) | 700 µg/mL | 330 µg/mL | 500 µg/mL | > (> indicates greater than 200 μg/mL) | 100 µg/mL | 200 µg/mL | 500 µg/mL | > (> indicates greater than 1000) | 500 | –
5 | FAKLLFKALKKAL-NH2 [P112, FAKLLFKALKKAL-NH2] | 800 µg/mL | 470 µg/mL | 640 µg/mL | 660 µg/mL | 445 µg/mL | 500 µg/mL | 50 µg/mL | 200 µg/mL | 100 µg/mL | 420 µg/mL | > (> indicates greater than 1000) | 420 | –
6 | FAKLAKKALAKLL-NH2 [P148] | > (> indicates greater than 1000) | 660 µg/mL | > (> indicates greater than 1000) | > (> indicates greater than 1000) | 330 µg/mL | 315 µg/mL | > (> indicates greater than 200 μg/mL) | 200 µg/mL | 200 µg/mL | 380 µg/mL | > (> indicates greater than 1000) | 380 | –
7 | FALALKLKKL-NH2 [P181] | 870 µg/mL | > (> indicates greater than 1000) | > (> indicates greater than 1000) | > (> indicates greater than 1000) | 830 µg/mL | 550 µg/mL | 100 µg/mL | 200 µg/mL | 100 µg/mL | 500 µg/mL | > (> indicates greater than 1000) | 500 | –
8 | FAKLLAKLAKKFAL-NH2 [P120, FAKLLAKLAKKFAL-NH2] | 630 µg/mL | 620 µg/mL | > (> indicates greater than 1000) | 810 µg/mL | 660 µg/mL | 730 µg/mL | 50 µg/mL | 200 µg/mL | 200 µg/mL | 600 µg/mL | > (> indicates greater than 1000) | 600 | –
9 | FAKLLAKKLL-NH2 [P57] | 740 µg/mL | > (> indicates greater than 1000) | > (> indicates greater than 1000) | 830 µg/mL | 740 µg/mL | > (> indicates greater than 1000) | 100 µg/mL | 200 µg/mL | 200 µg/mL | 900 µg/mL | > (> indicates greater than 1000) | 900 | –
10 | FAKLLAKLAKAKA-NH2 [P95] | > (> indicates greater than 1000) | > (> indicates greater than 1000) | > (> indicates greater than 1000) | > (> indicates greater than 1000) | 820 µg/mL | > (> indicates greater than 1000) | 100 µg/mL | 200 µg/mL | > (> indicates greater than 200 μg/mL) | 250 µg/mL | > (> indicates greater than 1000) | 250 | –
11 | FALALKALKK-NH2 [P169] | > (> indicates greater than 1000) | 640 µg/mL | > (> indicates greater than 1000) | > (> indicates greater than 1000) | 530 µg/mL | 510 µg/mL | 100 µg/mL | 100 µg/mL | 100 µg/mL | > (> indicates greater than 1000) | > (> indicates greater than 1000) | – | > (> indicates greater than 1000)
12 | FALKALKK-NH2 [P145] | > (> indicates greater than 1000) | > (> indicates greater than 1000) | > (> indicates greater than 1000) | 240 µg/mL | > (> indicates greater than 1000) | > (> indicates greater than 1000) | 200 µg/mL | 100 µg/mL | 200 µg/mL | > (> indicates greater than 1000) | > (> indicates greater than 1000) | – | > (> indicates greater than 1000)
13 | FAKGVGKVGKKAL-NH2 [P137, FAKGVGKVGKKAL-NH2] | > (> indicates greater than 1000) | > (> indicates greater than 1000) | > (> indicates greater than 1000) | > (> indicates greater than 1000) | > (> indicates greater than 1000) | > (> indicates greater than 1000) | > (> indicates greater than 200 μg/mL) | > (> indicates greater than 200 μg/mL) | > (> indicates greater than 200 μg/mL) | > (> indicates greater than 1000) | > (> indicates greater than 1000) | – | > (> indicates greater than 1000)
14 | KAKLF-NH2 [P130, KAKLF-NH2] | > (> indicates greater than 1000) | > (> indicates greater than 1000) | > (> indicates greater than 1000) | > (> indicates greater than 1000) | > (> indicates greater than 1000) | > (> indicates greater than 1000) | 200 µg/mL | 200 µg/mL | 200 µg/mL | > (> indicates greater than 1000) | > (> indicates greater than 1000) | – | > (> indicates greater than 1000)
15 | FALKALKKAL-NH2 [P170, FALKALKKAL-NH2] | > (> indicates greater than 1000) | > (> indicates greater than 1000) | > (> indicates greater than 1000) | > (> indicates greater than 1000) | > (> indicates greater than 1000) | 940 µg/mL | 200 µg/mL | 100 µg/mL | 100 µg/mL | > (> indicates greater than 1000) | > (> indicates greater than 1000) | – | > (> indicates greater than 1000)
16 | FAKKLAKALL-NH2 [P58] | > (> indicates greater than 1000) | > (> indicates greater than 1000) | > (> indicates greater than 1000) | > (> indicates greater than 1000) | > (> indicates greater than 1000) | > (> indicates greater than 1000) | 100 µg/mL | 100 µg/mL | 200 µg/mL | > (> indicates greater than 1000) | > (> indicates greater than 1000) | – | > (> indicates greater than 1000)

— patent US20050209157A1, “Short bioactive peptides and methods for their use” (priority 2001, published 2005)
